Like-named read-outs stand apart in the source and are kept apart here.
Molecular target: T1, self-produced hTGase 2 (Homo sapiens, UniProt P21980)
T1 construct: thrombin cleavage site (N); made in house; host or cells: E. coli BL21(DE3)
T1 sequence (P21980 1-687): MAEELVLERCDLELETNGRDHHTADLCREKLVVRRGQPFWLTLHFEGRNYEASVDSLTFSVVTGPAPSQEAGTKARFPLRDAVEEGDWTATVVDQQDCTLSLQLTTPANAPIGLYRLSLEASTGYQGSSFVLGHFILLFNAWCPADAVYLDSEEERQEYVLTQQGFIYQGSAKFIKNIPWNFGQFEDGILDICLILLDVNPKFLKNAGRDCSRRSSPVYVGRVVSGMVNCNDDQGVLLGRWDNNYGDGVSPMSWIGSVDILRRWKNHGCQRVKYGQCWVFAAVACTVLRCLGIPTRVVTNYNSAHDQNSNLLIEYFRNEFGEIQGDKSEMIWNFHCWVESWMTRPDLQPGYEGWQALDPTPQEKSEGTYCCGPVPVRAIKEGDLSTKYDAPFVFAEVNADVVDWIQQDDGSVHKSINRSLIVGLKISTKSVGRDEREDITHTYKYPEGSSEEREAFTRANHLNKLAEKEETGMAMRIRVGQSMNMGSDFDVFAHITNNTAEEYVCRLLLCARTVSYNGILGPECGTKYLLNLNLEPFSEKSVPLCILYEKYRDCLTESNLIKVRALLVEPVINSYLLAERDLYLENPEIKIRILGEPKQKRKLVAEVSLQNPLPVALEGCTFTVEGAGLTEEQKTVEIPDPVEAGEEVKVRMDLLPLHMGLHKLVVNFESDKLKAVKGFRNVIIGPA
Test: native GTP-PAGE with increasing concentrations of inhibitor, band quantification
Type: biochemical
Details: 8.23 µM hTGase 2; for IC50: 50 µM GTP in gel and buffer
Method: Figure 8 Effect of increasing concentrations of inhibitor 2 on the activity and the conformation of hTGase 2. Native GTP-PAGE was performed on 7% separating gels. Both the gel and the running buffer contained 50 µM GTP without (A) and with an additional 500 µM MgCl2 (B). Samples of 8.23 µM self-produced hTGase 2 were first incubated for 30 min at 20 °C in 100 mM MOPS pH 8.0, 100 mM NaCl, 2.12% (v/v) DMSO, 5.33% (v/v) glycerol with CaCl2, GTP, MgCl2, and different concentrations of inhibitor 2, as indicated. GTP and/or MgCl2 were added as indicated, and all samples were incubated for 60 min at 20 °C. After adding native loading buffer, 6 µL of each sample containing 3 µg of hTGase 2 was loaded onto the gel. After electrophoretic separation, gels were stained with Coomassie Brilliant Blue G250, scanned, and the protein bands were quantified (Figure S7 in Supplementary Materials). Four species of hTGase 2, i.e., oligomers and slow-, intermediate-, and fast-migrating species, were identified, with slow- and intermediate-migrating species combined for the quantitative analysis. (C) Percentage of the signals of the three species per lane and (D) percentage of the oligomers’ signal plotted versus the concentration of inhibitor 2. (E) Signals of the slow-/intermediate-migrating and fast-migrating species were added and set to one. (F) Portion of the fast-migrating species in (E) was plotted against the concentration of inhibitor 2. The IC50 values in (D,F) were calculated by non-linear regression according to Equation (S29) in Supplementary Materials.
Sodium dodecyl sulfate-PAGE (SDS-PAGE) and native PAGE were performed on 4% stacking and 7% separating gels using Laemmli buffers (60 min with 120 V, 300 mA and 30 W at room temperature) and the same buffers without SDS (80 min with 120 V, 50 mA and 30 W at 4 °C), respectively. Buffers and gels were as follows: (i) for SDS-PAGE: stacking gel: 0.125 M TRIS pH 6.8, 4% (v/v) acrylamide-bisacrylamide, 0.1% (m/v) SDS; separating gel: 0.375 M TRIS pH 8.8, 7% (v/v) acrylamide-bisacrylamide, 0.1% (m/v) SDS; running buffer: 0.025 M TRIS pH 8.3, 0.2 M glycine, 0.1% (m/v) SDS; (ii) for native PAGE: the same buffers and gels were used without the addition of SDS. Native PAGE experiments, where 50 µM of GTP was added to the stacking and separating gels and the running buffer, are specified as “native GTP-PAGE” (with italic letters). In contrast, experiments without GTP are denoted as “native PAGE” (with italics letters). The term “native (GTP-)PAGE” (with italics letters) is used when we refer to both methods. Further conditions of the SDS-PAGE and native (GTP-)PAGE are detailed in the legends of Figure 7 and Figure 8 and Figures S4–S6 (Supplementary Materials). For the loading of samples onto the stacking gel, three parts of the sample solution were mixed with one part of the respective loading buffer. In the case of SDS-PAGE, SDS loading buffer (0.24 M TRIS, 40% (v/v) glycerol, 8% (m/v) SDS, 2% (v/v) 2-mercaptoethanol, and 0.08% (m/v) bromphenol blue) were used, followed by the denaturation of the mixture for 5 min at 60 °C. […] Afterward, the gels were scanned using a LI-COR Odyssey Fc Imager (700 channel) and analyzed using Image Studio software version 5.2.5. Detected bands were quantified based on the general procedure published by Wagstaff et al. and as detailed in legends to Figures S5 and S6. […]

IC50 (Gel A (w/o Mg^2+), read-out: IC50, percentage of the oligomers' signal (Figure 8D)): 5.58 µM
IC50 (Gel A (w/o Mg^2+), read-out: IC50, portion of the fast-migrating (closed) species of monomeric hTGase 2 (Figure 8F)): 5.28 µM
IC50 (Gel B (with Mg^2+, 500 µM MgCl2), read-out: IC50, percentage of the oligomers' signal (Figure 8D)): 5.71 µM
IC50 (Gel B (with Mg^2+, 500 µM MgCl2), read-out: IC50, portion of the fast-migrating (closed) species of monomeric hTGase 2 (Figure 8F)): 5.68 µM
ratio of the IC50 and the molar enzyme concentration (native GTP-PAGE, calculated from values in Figure 8D,F): 0.64–0.69
SMILES: C=CC(=O)NCCCC[C@H](NC(=O)Cc1ccccc1I)C(=O)N1CCN(c2ccc([N+](=O)[O-])nc2)CC1 [Compound 2, N^α-(2-Iodophenylacetyl)-N^ε-acryloyl-L-lysin-4-(2-nitropyridin-5-yl)piperazide]

From paper PMC9865645, “The Impact of N^ε-Acryloyllysine Piperazides on the Conformational Dynamics of Transglutaminase 2” (International Journal of Molecular Sciences, 2023)
